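Step 1: Grow cells in 96-well plates. Step 2: Expose to compound for 48 hours at 5 concentrations. Step 3: Interpolate endpoints linearly; if unreached, use highest concentration. At the GI50, growth is halved.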 The source made the active and inactive calls. No stated cut-off is given here; in the data, active = GI50 up to about 1.1 µM and inactive = higher.
How the values were obtained:
Assay in all cases: NCI-60 cell line screen, 48 h
UACC-62 = test system: UACC-62
SF-268 = test system: SF-268
SNB-75 = test system: SNB-75
HT-29 = test system: HT-29
UO-31 = test system: UO-31
IGROV-1 = test system: IGROV-1
SNB-19 = test system: SNB-19
NCI-H522 = test system: NCI-H522
OVCAR-3 = test system: OVCAR-3
HOP-62 = test system: HOP-62
SF-539 = test system: SF-539
HCT-15 = test system: HCT-15
COLO 205 = test system: COLO 205
SN12C = test system: SN12C
786-0 = test system: 786-0
OVCAR-8 = test system: OVCAR-8
SW-620 = test system: SW-620
MDA-MB-231 = test system: MDA-MB-231
CAKI-1 = test system: CAKI-1
NCI-H226 = test system: NCI-H226

Row | SMILES | GI50 (UACC-62) | GI50 (SF-268) | GI50 (SNB-75) | GI50 (HT-29) | GI50 (UO-31) | GI50 (IGROV-1) | GI50 (SNB-19) | GI50 (NCI-H522) | GI50 (OVCAR-3) | GI50 (HOP-62) | GI50 (SF-539) | GI50 (HCT-15) [µM] | GI50 (COLO 205) | GI50 (SN12C) | GI50 (786-0) | GI50 (OVCAR-8) | GI50 (SW-620) | GI50 (MDA-MB-231) | GI50 (CAKI-1) | GI50 (NCI-H226)
1 | COc1ccc2nc(NCN3C(=O)c4ccccc4C3=O)sc2c1 | > 100 µM (inactive) | > 100 µM (inactive) | > 100 µM (inactive) | > 100 µM (inactive) | > 100 µM (inactive) | > 100 µM (inactive) | > 100 µM (inactive) | > 100 µM (inactive) | > 100 µM (inactive) | > 100 µM (inactive) | > 100 µM (inactive) | > 100 | > 100 µM (inactive) | > 100 µM (inactive) | > 100 µM (inactive) | > 100 µM (inactive) | > 100 µM (inactive) | > 100 µM (inactive) |  | 
2 | C/C1=C/C(C)CC(C)OC(=O)C(C)NC(=O)C(Cc2ccc(O)c(I)c2)N(C)C(=O)CNC(=O)C(C)C1 (centres undefined) |  | < 0.0186 µM (active) | < 0.01 µM (active) | < 0.01 µM (active) | < 0.0109 µM (active) | < 0.01 µM (active) | 2.42 µM (inactive) | < 0.01 µM (active) | < 0.01 µM (active) | < 0.01 µM (active) | < 0.01 µM (active) | < 0.0121 | < 0.01 µM (active) | 0.0342 µM (active) | < 0.01 µM (active) | 0.0306 µM (active) | < 0.01 µM (active) | < 0.01 µM (active) | < 0.01 µM (active) | 
3 | CC(=O)OCC1OC(N2C(=O)NC(=O)C3C=C4CCCCC4=CC32)CC1OC(C)=O (centres undefined) | > 100 µM (inactive) | > 100 µM (inactive) | 56.4 µM (inactive) | > 100 µM (inactive) | > 100 µM (inactive) | > 100 µM (inactive) | > 100 µM (inactive) | 70 µM (inactive) | > 100 µM (inactive) | > 100 µM (inactive) | > 100 µM (inactive) | > 100 |  | > 100 µM (inactive) | > 100 µM (inactive) | > 100 µM (inactive) | > 100 µM (inactive) | > 100 µM (inactive) |  | > 100 µM (inactive)
4 | COc1ccc(C(C2=C(O)CC(C)OC2=O)C2=C(O)CC(C)OC2=O)cc1 (centres undefined) | > 100 µM (inactive) | > 100 µM (inactive) | > 100 µM (inactive) | > 100 µM (inactive) | > 100 µM (inactive) | > 100 µM (inactive) | > 100 µM (inactive) | > 100 µM (inactive) | > 100 µM (inactive) | > 100 µM (inactive) | > 100 µM (inactive) | > 100 | > 100 µM (inactive) | > 100 µM (inactive) | > 100 µM (inactive) | > 100 µM (inactive) | > 100 µM (inactive) |  | > 100 µM (inactive) | > 100 µM (inactive)
5 | Cc1ccc(C(=O)/C=C2\Nc3ccccc3N=C2NC23CC4CC(CC(C4)C2)C3)cc1 | > 10 µM (inactive) | > 10 µM (inactive) | > 10 µM (inactive) | > 10 µM (inactive) |  | > 10 µM (inactive) | > 10 µM (inactive) | > 10 µM (inactive) | > 10 µM (inactive) | > 10 µM (inactive) | > 10 µM (inactive) | > 10 | > 10 µM (inactive) | > 10 µM (inactive) | > 10 µM (inactive) | > 10 µM (inactive) | 7.24 µM (inactive) | > 10 µM (inactive) | > 10 µM (inactive) | 
6 | CC1=C(C(=O)Nc2cccc3c2C(=O)NC3=O)CC(C(=O)Nc2cccc3c2C(=O)NC3=O)=C(C)N1 | > 100 µM (inactive) | > 100 µM (inactive) | 88.3 µM (inactive) |  | > 100 µM (inactive) | > 100 µM (inactive) | > 100 µM (inactive) | > 100 µM (inactive) | > 100 µM (inactive) | > 100 µM (inactive) | > 100 µM (inactive) | > 100 | 40.7 µM (inactive) | > 100 µM (inactive) | > 100 µM (inactive) |  | > 100 µM (inactive) | > 100 µM (inactive) | > 100 µM (inactive) | 
7 | O=C1Nc2ccccc2N=CC1NC(=O)C(c1ccccc1)c1ccccc1 (centres undefined) | > 100 µM (inactive) | > 100 µM (inactive) | > 100 µM (inactive) | > 100 µM (inactive) | > 100 µM (inactive) | > 100 µM (inactive) | > 100 µM (inactive) | > 100 µM (inactive) | > 100 µM (inactive) | > 100 µM (inactive) | > 100 µM (inactive) | > 100 | > 100 µM (inactive) | > 100 µM (inactive) | > 100 µM (inactive) | > 100 µM (inactive) | > 100 µM (inactive) |  | > 100 µM (inactive) | > 100 µM (inactive)
8 | CCOP(=O)(OCC)[C@H]1OC(C)(C)O[C@@H]1CO | > 100 µM (inactive) | > 100 µM (inactive) |  | > 100 µM (inactive) |  | > 100 µM (inactive) | > 100 µM (inactive) | > 100 µM (inactive) | > 100 µM (inactive) | > 100 µM (inactive) | > 100 µM (inactive) | > 100 | > 100 µM (inactive) | > 100 µM (inactive) | > 100 µM (inactive) | > 100 µM (inactive) | > 100 µM (inactive) | > 100 µM (inactive) | > 100 µM (inactive) | 
9 | COc1cc(/C=C2\CCC/C(=C\c3ccc(OC(=O)CCCCC4CCSS4)c(OC)c3)C2=O)ccc1OC(=O)CCCCC1CCSS1 (centres undefined) | > 100 µM (inactive) | > 100 µM (inactive) | > 100 µM (inactive) | > 100 µM (inactive) | > 100 µM (inactive) | > 100 µM (inactive) | > 100 µM (inactive) | > 100 µM (inactive) | > 100 µM (inactive) | > 100 µM (inactive) | > 100 µM (inactive) | > 100 | > 100 µM (inactive) | > 100 µM (inactive) | > 100 µM (inactive) | > 100 µM (inactive) | > 100 µM (inactive) | > 100 µM (inactive) |  | > 100 µM (inactive)
10 | O=C(Nn1c(-c2ccccc2)nc2ccccc2c1=O)c1ccccn1 | 42.3 µM (inactive) | > 100 µM (inactive) | 42.1 µM (inactive) | 65.3 µM (inactive) | > 100 µM (inactive) | > 100 µM (inactive) | > 100 µM (inactive) | 72.8 µM (inactive) | 79.3 µM (inactive) | > 100 µM (inactive) | 43.7 µM (inactive) |  | > 100 µM (inactive) | > 100 µM (inactive) | > 100 µM (inactive) | 64.4 µM (inactive) | > 100 µM (inactive) | > 100 µM (inactive) |  | 
11 | CN(NC(=O)c1ccco1)C1=NCCCCN1 | > 100 µM (inactive) | > 100 µM (inactive) | > 100 µM (inactive) | > 100 µM (inactive) | > 100 µM (inactive) | > 100 µM (inactive) | > 100 µM (inactive) | > 100 µM (inactive) | > 100 µM (inactive) | > 100 µM (inactive) | > 100 µM (inactive) | > 100 | > 100 µM (inactive) | > 100 µM (inactive) | > 100 µM (inactive) | > 100 µM (inactive) | > 100 µM (inactive) | > 100 µM (inactive) |  | > 100 µM (inactive)
